# Measurements as given in EP2018861A1, “5HT6-Ligands such as sulfonamide derivatives in drug-induced weight-gain” (Laboratorios del Dr. Esteve S.A., priority 2007, dated 2009).
# What was measured:
# [1] = repeated sibutramine administration, 14 days (Figure 7); cited from earlier work
# [2] = Feeding study in dietary-induced obese (DIO) rats, comparison with sibutramine; assay type: in vivo, female Wistar rats; conditions: for body weight compared with the vehicle-treated controls / daily food intake: 28 days; for body weight compared with the vehicle-treated controls / daily food intake / days on which the decreases of food intake were statistically significant versus the vehicle-treated control group / weighed less than the vehicle-treated controls: COMPOUND 1 30 mg/kg po bid; for body weight compared with the vehicle-treated controls: sibutramine 5 mg/kg/day po once daily (Figure 4); for daily food intake: sibutramine 5 mg/kg/day po once daily (Figure 5); for days on which the decreases of food intake were statistically significant versus the vehicle-treated control group / weighed less than the vehicle-treated controls: sibutramine 5 mg/kg/day po; for weighed less than the vehicle-treated controls: end of treatment period (Day 28); for weight reductions: over the 28 daily treatment period, DIO rat (Figure 4)
# Description: The experiment was performed on female Wistar rats (originally in the weight range 250-300 g). The rats were housed in pairs in polypropylene cages with solid floors and sawdust bedding at a temperature of 21±4°C and 55±20% humidity. Animals were maintained on a reverse phase light-dark cycle (lights off for 8 h from 09.30-17.30 h) during which time the room was illuminated by red light. Animals had free access to powdered high fat diet (VRF1 plus 20% lard), ground chocolate, ground peanuts and tap water at all times. The three different diets were contained in separate glass feeding jars with aluminum lids with a 3-4 cm hole cut in them to allow access to the food. Animals were housed in pairs for twelve weeks for the induction of obesity. Animals were then housed singly in polypropylene cages with wire grid floors to enable the food intake of each rat to be recorded. Polypropylene trays with cage pads were placed beneath each cage to detect any food spillage. Animals were accustomed to these new conditions (individual housing and the wire-grid floor cages) for at least 14 days before the start of the baseline readings.
# At the start of the first DIO study, animals were weighed (to the nearest 0.1 g using an electronic top-pan balance) and allocated into 3 weight-matched treatment groups, each containing 10 animals. Following a 7 day baseline run-in period, during which time all animals were dosed orally once a day with vehicle (0.5% hydroxypropylmethylcellulose), rats were dosed for 28 days with vehicle at 0 and 6 h or test compound either COMPOUND 1 (30 mg/kg, p.o., twice a day at 0 and 6 h) or sibutramine (5 mg/kg, p.o. at 0 h / vehicle p.o. at 6 h). The first compound dose was given at the onset of the 8 h dark period (0 h). This strategy was taken to maximise the impact of any inhibitory effect of the compounds on food intake as rats are predominantly nocturnal feeders. Six hours later, animals were dosed again with either vehicle or compounds.
# Food intake and body weight were measured once daily. Variations in body weight and energy levels of the different types of food were accounted for by expressing the food intake results in terms of kJ/kg rat weight.
# (§1) Statistical comparisons between the body weights and daily food intakes of the different treatment groups have been made by analysis of covariance followed by Dunnett's test to compare each treatment group with the vehicle-treated controls. For the body weight data (body weights each day), the weights of the animals on Day 1 (ie immediately before the first drug treatment) were used as the covariate. Thus, means were adjusted for differences in body weight between the groups on Day 1 and standard errors of the mean (SEM) were calculated from the residuals of the statistical model. All mean body weight values on Day 1 are identical (and SEM are therefore zero) because the analysis of covariance adjusts them all to equal the 'grand mean' of the values of this day.
# [3] = 5-HT6 antagonists; Svartengren et al, 2004; Shacham et al, 2006; cited from earlier work
# 5-HT6 receptors = 5-HT6 receptors (Rattus norvegicus, UniProt P31388); conditions: Roth et al, 1994; cited from earlier work
# 5-HT6 receptors, sequence (P31388 whole entry): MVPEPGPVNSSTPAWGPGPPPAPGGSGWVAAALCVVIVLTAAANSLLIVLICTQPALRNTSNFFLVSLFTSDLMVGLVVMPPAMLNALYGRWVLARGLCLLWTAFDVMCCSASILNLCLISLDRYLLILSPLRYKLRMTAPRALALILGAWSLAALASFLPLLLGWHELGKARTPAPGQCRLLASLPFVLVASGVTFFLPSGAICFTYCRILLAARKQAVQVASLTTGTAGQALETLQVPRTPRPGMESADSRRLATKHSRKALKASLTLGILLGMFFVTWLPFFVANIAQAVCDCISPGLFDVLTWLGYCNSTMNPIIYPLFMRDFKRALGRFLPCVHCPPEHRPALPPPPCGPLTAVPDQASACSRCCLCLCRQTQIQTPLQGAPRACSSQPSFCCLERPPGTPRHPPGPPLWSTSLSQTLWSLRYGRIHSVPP
# [4] = Feeding study: olanzapine-induced weight-gain and hyperphagia in rats on a high-fat diet; assay type: in vivo, female Sprague-Dawley rats; conditions: olanzapine 3 mg/kg po; for Mean body weight (g) Day 15: after 14 days of treatment, high-fat diet; for Mean body weight (g) Day 15 / Mean body weight (g) Day 0: n=10; for Mean body weight (g) Day 0: before treatment (baseline)
# Description: The experiment was performed on 40 female Sprague-Dawley rats (originally in the weight range 250-300 g). The animal room was maintained at a temperature of 21±4°C and 55±20% humidity and on a reversed phase light-dark cycle (lights off for 8 h from 09.30-17.30 h) during which time the room was illuminated by red light. Animals had free access to powdered high fat diet (VRF1 plus 20% lard). The diet was contained in a glass feeding jar with an aluminium lid with a 3-4 cm hole cut in it to allow access to the food. Animals were housed singly in polypropylene cages with wire grid floors to enable the food intake of each rat to be recorded. Polypropylene trays containing cage pads were placed beneath each cage to detect any food spillage. Animals were accustomed to these new conditions (individual housing and the wire-grid floor cages) for at least 14 days before the start of the baseline readings.
# Approximately a week before the start of the study, animals were weighed (to the nearest 0.1 g using an electronic top-pan balance) and allocated into 4 weight-matched treatment groups, each containing 10 animals. Following a 7 day baseline run-in period, during which the animals were dosed orally with vehicle (0.5% hydroxypropylmethylcellulose), to acclimatise them to dosing/handling, the rats were given treatments, described in the Table below, for 14 days.
# Food intake and body weight were measured once daily. Variations in body weight were accounted for by expressing the food intake results in terms of g/kg rat weight.
# as §1, with “body weights of the” for “body weights and daily food intakes of the”, “treatment groups were made by” for “treatment groups have been made by”, “followed by multiple t tests (two-tailed) to compare” for “followed by Dunnett's test to compare”, “(body weights recorded each day),” for “(body weights each day),”
# Statistical comparisons between the food intakes of the different treatment groups were made by analysis of covariance followed by multiple t tests (two-tailed) to compare each treatment group with the vehicle-treated controls. Food intake of the animals at baseline (ie average of Day -6 to Day 0) was used as the covariate. Standard errors of the mean (SEM) were calculated from the residuals of the statistical model.
# Analysis of body weights and average daily food intakes were also performed to analyse cumulative food intake and body weight changes. Analysis of covariance followed by post-hoc Student's t-test (two-tailed) was used to compare the average daily food intakes over Week 1 and Week 2 for COMPOUND 1 treatment group versus (a) the vehicle-treated and (b) the olanzapine-treated groups of rats. The body weights of all groups of rats before and after treatment were statistically compared pair-wise using Student's paired t-test (two-tailed).
# [5] = molecular target: human variant of the 5-HT6 receptor (Homo sapiens, UniProt P50406); conditions: Romero et al, 2006; cited from earlier work
# human 5-HT6 receptors = molecular target: T1, human 5-HT6 receptors (Homo sapiens, UniProt P50406); assay: Radiolabelled ligand-receptor binding ([3H]-LSD) on cloned/transfected human 5-HT6 receptors; conditions: equated from the pKi value
# T1 construct: purchased Perkin-Elmer; host or cells: HEK-293 (stably transfected), membranes
# T1 sequence (P50406 whole entry): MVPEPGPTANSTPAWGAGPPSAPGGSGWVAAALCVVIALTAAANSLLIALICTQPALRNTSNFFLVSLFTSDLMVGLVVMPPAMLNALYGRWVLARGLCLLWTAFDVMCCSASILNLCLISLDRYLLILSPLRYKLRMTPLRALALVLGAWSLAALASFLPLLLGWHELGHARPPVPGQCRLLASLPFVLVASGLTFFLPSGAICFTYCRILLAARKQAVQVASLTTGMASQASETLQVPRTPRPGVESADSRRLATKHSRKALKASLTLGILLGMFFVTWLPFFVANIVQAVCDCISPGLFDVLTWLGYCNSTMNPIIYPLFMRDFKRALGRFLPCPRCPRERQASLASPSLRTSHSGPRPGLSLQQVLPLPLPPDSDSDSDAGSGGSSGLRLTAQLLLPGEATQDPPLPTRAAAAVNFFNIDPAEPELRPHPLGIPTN
# Description: To investigate the binding properties of 5-HT6 receptor ligands to human 5-HT6 receptors, transfected HEK-293 membranes from Perkin-Elmer and [3H]-LSD (NEN), as the radioligand, were used. The assay was carried out in 96-well plates with a total reaction volume of 200 µl, containing 100 µl of membrane suspension (35 µg protein/well), 10 µl of [3H]-LSD (2.7 nM) in either the absence or presence of 90 µl of either buffer or methiothepin (5 µM) for total and non-specific binding, respectively. Binding buffer contained 50 mMTris-HCl, 10 mM MgCl2 and 0.5 mM EDTA at pH 7.4. Plates were incubated at 37 °C for 60 minutes. After the incubation period, 170 µl of incubate were transferred to MultiScreen HTS, FC plates (Millipore), filtered and plates were washed 3 times with ice-cold 50mM Tris-HCl (pH 7.4). Filters were dried and counted at approximately 40% efficiency in a MicroBeta scintillation counter (Perkin-Elmer) using 25 µl per well of EcoScint liquid scintillation cocktail.
# [6] = molecular target: rat variant of the 5-HT6 receptor (Rattus norvegicus, UniProt P31388); conditions: Romero et al, 2006; cited from earlier work
structure (smiles),measurement,setting,value
CC(C)CC(N(C)C)C1(c2ccc(Cl)cc2)CCC1 (stereo not shown) [sibutramine],effect on the weight-gain evoked by olanzapine,[1],only partially to attenuate the weight-gain
same,body weight compared with the vehicle-treated controls,[2],significant body weight-loss
same,daily food intake,[2],significant reduction of food intake
same,days on which the decreases of food intake were statistically significant versus the vehicle-treated control group,[2],Day 1 to Day 5
same,weighed less than the vehicle-treated controls,[2],10.8%
same,weight reductions,[2],greater than 10%
COc1cc(Cl)cc(C(C)Nc2cc(N3CCNCC3)ccc2S(C)(=O)=O)c1OC.Cl (stereo not shown) [PRX-07034],food intake and body weight in obese rodents,[3],reduce food intake and produce sustained weight-loss
OC1(c2ccc(Cl)c(C(F)(F)F)c2)CCN(CCCC(c2ccc(F)cc2)c2ccc(F)cc2)CC1 [penfluridol],affinity for this 5-HT receptor subtype (5-HT6),5-HT6 receptors,no relevant affinity
CCN1CCC[C@H]1CNC(=O)c1c(O)c(Cl)cc(Cl)c1OC [raclopride],affinity for this 5-HT receptor subtype (5-HT6),5-HT6 receptors,no relevant affinity
C[C@@H]1CN(CCCn2c3ccccc3c3ccccc32)C[C@H](C)N1 [rimcazole],affinity for this 5-HT receptor subtype (5-HT6),5-HT6 receptors,no relevant affinity
Cc1cc2c(s1)Nc1ccccc1N=C2N1CCN(C)CC1 [Olanzapine],Mean body weight (g) Day 15,[4]; COMPOUND 1 30 mg/kg po bid,333.0 ± 8.2 g
same,Mean body weight (g) Day 0,[4]; COMPOUND 1 30 mg/kg po bid,296.9 ± 7.2 g
"CN(C)CCc1c[nH]c2ccc(NS(=O)(=O)c3ccc4c(Cl)cccc4c3)cc12 [COMPOUND 1, 5-Chloro-naphthalene-2-sulfonic acid [3-(2-dimethylamino-ethyl)-1H-indol-5-yl]-amide]",functionality at the 5-HT6 receptor,[5],agonist
same,body weight compared to the vehicle + vehicle-treated control,"[4]; 14 days, COMPOUND 1 30 mg/kg po bid, high-fat diet (Figure 1)",gradual decrease in body weight
same,daily food intake compared to the vehicle-treated controls,"[4]; 14 days, COMPOUND 1 30 mg/kg po bid, high-fat diet (Figure 2)",markedly reduced their food intakes
same,cumulative intake of food over the first week compared to the vehicle controls,"[4]; Week 1, COMPOUND 1 30 mg/kg po bid (Figure 3)",statistically lower (p < 0.001)
same,Mean body weight (g) Day 15,[4]; COMPOUND 1 30 mg/kg po bid,289.5 ± 6.1 g
same,Mean body weight (g) Day 0,[4]; COMPOUND 1 30 mg/kg po bid,292.8 ± 7.2 g
same,Ki,human 5-HT6 receptors,740 pM
same,functionality at the 5-HT6 receptor,[6],agonist
same,body weight compared with the vehicle-treated controls,[2],marked and sustained decrease in the body weights
same,daily food intake,[2],reduction in daily food intake
same,days on which the decreases of food intake were statistically significant versus the vehicle-treated control group,[2],Day 2 to Day 8
same,weighed less than the vehicle-treated controls,[2],15.6%
same,weight reductions,[2],greater than 10%
